# Measurements as given in ChEMBL document CHEMBL5107993, “Design, synthesis and in vitro biological evaluation of marine phidianidine derivatives as potential anti-inflammatory agents” (Bioorg Med Chem, 2022).
# pIC50: −log10 of the molar value. The source made the active and inactive calls. The rule behind the calls is not given here.
# Experiments:
# [1] = Inhibition of IL-17A production in PMA/ionomycin-stimulated mouse EL4 cells at 10 uM measured by ELISA relative to control; type: functional
# [2] = Inhibition of IL-17A production in PMA/ionomycin-stimulated mouse EL4 cells measured by ELISA; type: functional, cell-based
# EL4 [3] = assay: Inhibition of IL-17A production in PMA/ionomycin-stimulated mouse EL4 cells at 2 to 10 uM measured […]; type: functional, cell-based; settings: dose 2-10 µM, DDE = dose-dependent effect
# EL4 [4] = assay: Inhibition of IL-17A production in PMA/ionomycin-stimulated mouse EL4 cells at 2 to 10 uM measured by ELISA; type: functional, cell-based; settings: dose 2-10 µM, DDE = dose-dependent effect
# EL4 [5] = assay: Inhibition of IL-17A mRNA expression in PMA/ionomycin-stimulated mouse EL4 cells at 10 uM measured by qRT-PCR method; type: functional, cell-based
# EL4 [6] = assay: Inhibition of IL-17F mRNA expression in PMA/ionomycin-stimulated mouse EL4 cells at 10 uM measured by qRT-PCR method; type: functional, cell-based
# Th17 [7] = assay: Inhibition of human Th17 cells differentiation in CD4+ve T cells assessed as decrease in IL-17A production at 2 uM measured by ELISA; type: functional, cell-based
# Th17 [8] = assay: Inhibition of human Th17 cells differentiation in CD4+ve T cells assessed as decrease in IL-17A mRNA expression at 2 uM measured by qRT-PCR method; type: functional, cell-based
# EL4 [9] = assay: Downregulation ofp-STAT3 (Y705) expression in PMA/ionomycin-stimulated mouse EL4 cells measured by western blot analysis; type: functional, cell-based
# [10] = Inhibition of IL-17A production in PMA/ionomycin-stimulated mouse EL4 cells at 20 uM measured by ELISA relative to control; type: functional
structure (smiles),measurement,setting,value
CN(C)CCNc1ccc(-c2noc(Cc3c[nH]c4ccccc34)n2)cc1,inhibition at 10 µM,[1],78.7%
same,pIC50,[2],5.11
same,inhibition,EL4 [3],Dde
same,inhibition,EL4 [4],Dde
same,inhibition,EL4 [5],Active
same,inhibition,EL4 [6],Active
same,inhibition,Th17 [7],Active
same,inhibition,Th17 [8],Active
same,Activity,EL4 [9],Active
CS(=O)(=O)c1ccc(CNc2ccc(-c3noc(Cc4c[nH]c5ccccc45)n3)cc2)cc1,inhibition at 10 µM,[1],10.3%
NC12CCC(c3nc(Cc4c[nH]c5ccccc45)no3)(CC1)C2,inhibition at 10 µM,[1],3%
c1ccc2c(Cc3noc(CNC4CCC4)n3)c[nH]c2c1,inhibition at 10 µM,[1],5.8%
O=S(=O)(c1ccccc1)N(CC(F)(F)F)c1ccc(C(O)(C(F)(F)F)C(F)(F)F)cc1 [T091317],inhibition at 20 µM,[10],52.7%
CN(C)CCNCc1nc(Cc2c[nH]c3ccccc23)no1,inhibition at 10 µM,[1],6.1%
CN(C)CCNc1ccc(-c2noc(-c3ccccc3)n2)cc1,inhibition at 20 µM,[10],22.9%
NCCNc1ccc(-c2noc(Cc3c[nH]c4ccccc34)n2)cc1,inhibition at 10 µM,[1],21.5%
CS(=O)(=O)c1ccc(CNC23CCC(c4nc(Cc5c[nH]c6ccccc56)no4)(CC2)C3)cc1,inhibition at 10 µM,[1],8.1%
Nc1ccc(-c2noc(Cc3c[nH]c4ccccc34)n2)cc1,inhibition at 10 µM,[1],6.4%
COc1cc(-c2nc(-c3ccc(NCCN(C)C)cc3)no2)cc(OC)c1OC,inhibition at 10 µM,[1],83.5%
same,pIC50,[2],5.28
same,inhibition,EL4 [3],Dde
same,inhibition,EL4 [4],Dde
same,inhibition,EL4 [5],Active
same,inhibition,EL4 [6],Active
CN(C)CCNc1ccc(-c2noc(C34CC5CC(CC(C5)C3)C4)n2)cc1,inhibition at 10 µM,[1],39.6%
N=C(N)NCCNc1ccc(-c2noc(Cc3c[nH]c4ccccc34)n2)cc1,inhibition at 10 µM,[1],15.2%
CC(=O)NCCNc1ccc(-c2noc(Cc3c[nH]c4ccccc34)n2)cc1,inhibition at 10 µM,[1],31%
